Data reported in PubChem BioAssay AID812 (SRMLSC, 2007).
Active and inactive are the calls of the source. How the calls were made is not given here.

system: Saccharomyces cerevisiae lifespan extension, no nicotinamide; assay: yeast lifespan extension without nicotinamide, confirmation, yeast lifespan extension project, S. cerevisiae (AID 812);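 further: growth read as optical density after 42 hours of incubation at 30C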

Row | SMILES | EC50
1 | CCC(C)OC(=O)C1C(c2ccccc2)C(C(=O)O)C1c1ccccc1 (centres undefined) | > 40 µM (inactive)
2 | COc1ccccc1C(=O)Oc1ccc2c(c1)O/C(=C\c1ccncc1)C2=O | > 40 µM (inactive)
3 | CCOC(=O)c1[nH]nc(C(=O)c2ccc(Br)cc2)c1O | > 40 µM (inactive)
4 | Cc1ccc2nc(-c3ccc(NC(=O)CSc4ccccc4)cc3)[nH]c2c1 | > 40 µM (inactive)
5 | CC(=O)Oc1ccc(N(C(C)=O)S(=O)(=O)c2ccc(C)c([N+](=O)[O-])c2)cc1 | > 40 µM (inactive)
6 | COc1ccc(/C=N/NC(=O)c2csc(-n3nc(C)cc3C(F)(F)F)n2)cc1 | > 40 µM (inactive)
7 | CC(C)n1c(-c2ccccc2F)n[nH]c1=S | > 40 µM (inactive)
8 | C/C(=N\NC(=O)c1cccc(Cl)c1)C1C(=O)c2ccccc2C1=O | > 40 µM (inactive)
9 | O=C(Nc1ccc(S(=O)(=O)N2CCc3ccccc3C2)cc1)c1ccccc1 | > 40 µM (inactive)
10 | c1ccc(-c2cc(N3CCOCC3)nc3ccccc23)cc1 | > 40 µM (inactive)
11 | COCCOC(=O)/C(=C/c1ccc(OC(=O)c2ccccc2)cc1)C(C)=O | > 40 µM (inactive)
12 | Cc1ccccc1OC(=O)n1c(=S)oc2cc(Cl)ccc21 | > 40 µM (inactive)
13 | CCn1c(/N=C/c2ccccc2NS(=O)(=O)c2ccc(C)cc2)nc2ccccc21 | > 40 µM (inactive)
14 | O=C(NC(=S)NNC(=O)c1ccccc1O)c1ccco1 | > 40 µM (inactive)
15 | O=C1NCC2=C1C(c1ccc(Br)cc1)Nc1ccccc1N2 (centres undefined) | > 40 µM (inactive)
16 | CC1=NN(Cc2ccccc2)C(=O)C1C(c1ccccc1)C(C#N)C#N (centres undefined) | > 40 µM (inactive)
17 | CCOC(=O)c1cnc(-c2ccccc2)nc1Oc1ccc(Cl)cc1 | > 40 µM (inactive)
18 | CN(Cc1c(O)ccc2c1oc(=O)c1ccccc12)C1CCCCC1 | > 40 µM (inactive)
19 | Cc1ccc(S(=O)(=O)N[C@@H](Cc2ccccc2)C(=O)CCl)cc1 | > 40 µM (inactive)
20 | Cc1ccc(/C(O)=C2\C(=O)C(=O)N(c3cc(C)on3)C2c2cccc(Cl)c2)cc1 (centres undefined) | > 40 µM (inactive)

Row | SMILES | EC50
21 | CC1CCCCN1C(=S)Nc1ccc2nc3n(c(=O)c2c1)CCCCC3 (centres undefined) | > 40 µM (inactive)
22 | O=C1C(C2=C(O)c3ccccc3C2=O)=Nc2ccccc21 | > 40 µM (inactive)
23 | COc1c(Br)cc(Br)cc1/C=N/n1c(C)nnc1C | > 40 µM (inactive)
24 | Cc1ccc(C(=O)/C=C\C(=O)c2ccc(C)cc2)cc1 | > 40 µM (inactive)
25 | COc1ccc(/C=C(\C#N)C(=O)N2CCOCC2)cc1Br | > 40 µM (inactive)
26 | O=C1CC(c2ccccc2)CC(O)=C1C=NCCN1CCN(C(=O)Nc2ccccc2)CC1 (centres undefined) | > 40 µM (inactive)
27 | CCCCCOC(=O)CSc1nc2c(c(=O)[nH]c(=O)n2C)n1CCc1ccccc1 | > 40 µM (inactive)
28 | Cc1ccc(Oc2nc3ccccc3n3c(C)nnc23)c(C)c1 | > 40 µM (inactive)
29 | O=c1c2ccccc2nc(-c2ccc(Cl)c(Cl)c2)n1O | > 40 µM (inactive)
30 | CN1C/C(=C/c2cccnc2)C(=O)/C(=C/c2cccnc2)C1 | > 40 µM (inactive)
31 | O=C1Nc2ccccc2C12OCC1(CO2)COC2(OC1)C(=O)Nc1ccccc12 (centres undefined) | > 40 µM (inactive)
32 | Cc1cc(C)n2cc(CSc3nnc(N)s3)nc2n1 | > 40 µM (inactive)
33 | C=C1C(=O)C=C2CN(C(=O)c3ccccc3)[C@@](Cc3ccc(F)cc3)(C(=O)OC)[C@@H]12 | > 40 µM (inactive)
34 | Cc1ccnc(-n2c(C)cc(/C=C3\C(=O)NC(=S)N(C)C3=O)c2C)c1 | > 40 µM (inactive)
35 | CC1(C)Cc2ccccc2-c2nnc(SCC(=O)Nc3ccc4c(c3)OCO4)n21 | > 40 µM (inactive)
36 | CCOc1ccc(NCc2nc3ccccc3n2CCOc2ccccc2)cc1 | > 40 µM (inactive)
37 | CCNCCNC(=O)c1c(O)c2cccc3c2n(c1=O)CCC3 | > 40 µM (inactive)
38 | Cc1cc(C)c(NC(=O)/C(=C/c2ccccc2)c2ccccc2)c(C)c1 | > 40 µM (inactive)
39 | O=C(O)CCCCCN1C(=O)/C(=C\c2ccncc2)SC1=S | > 40 µM (inactive)
